Test results taken from patent US11945784B2, “IRE1 small molecule inhibitors” (Cornell University, priority 2018, dated 2024).

Tests used:
[1] = target: T1, IRE1α (Homo sapiens (Human), UniProt O75460); test: In vitro luciferase assay (IRE1α Endoribonuclease Nanoluciferase Assay); format: cell-based; details: 293T cells, XBP1 luciferase reporter
Method: Compounds disclosed herein were assessed for disruption of IRE-1 signaling using a IRE1α Endoribonuclease Nanoluciferase Assay. Briefly, 2.5×10^6 293T cells were seeded in a 10 cm^2 tissue culture plate. About 24 hours later, the cells were transfected with Effectene. In a 15 mL Tube, the following was added: 2 μg XBP1 luciferase reporter plasmid (PGK-Luc2-P2A-XBP1u-Nanoluciferase-PEST); 300 μl EC buffer; and 16 μl Enhancer, followed by incubation at room temp for 5 minutes. Next, 60 μl Effectene (Qiagen 301427) was added, followed by incubation at room temperature for 10 minutes. 2.6 mL cDMEM media was added. Old media was aspirated from the cells, followed by addition of 7 mL fresh media. Full transfection mixture was added dropwise to cells. Cells were incubated for 6 hours, followed by trypsinization, centrifugation and resuspension in 11 mL media. 100 uL of cells were plated per a well in a 96 well plate. A day later, ER stressors of choice+/−inhibitors were added. To harvest, media was aspirated from cells completely, then 50 uL 1× passive lysis buffer (Promega: E1941) was added per well and put on shaker (300 rpm) for 30 minutes at room temperature. Cells were centrifuged, and 15 uL sample per well was added to a new, opaque white 384 well plate (Corning 3570). 15 uL OneGlo (nanoluciferase kit, Promega N1630) was added. Plates were spun down, placed on shaker (300 rpm) for 10 minutes. Plates were read on luminometer, 1000 ms integration time per well. 15 uL Stop and Glo (nanoluciferase kit) was added. Plates were spun down, placed on shaker (300 rpm) for 10 minutes. Plates were read on luminometer, 1000 ms second integration time per well. Recordings are provided below in Table 4

[2] = target: T1, IRE1α; test: In vitro FRET assay; format: biochemical; details: XBP1 RNA probe
Method: In vitro FRET assay was performed to evaluate the ability of select compounds to inhibit IRE1, the results of which are summarized in Table 3. To perform the in vitro FRET assay, 1× complete assay buffer (CAB; […], 50 mM sodium citrate pH 7.15, 1 mM magnesium acetate, 0.02% tween 20) was used to dilute SignalChem IRE1α protein to a final concentration of 2 nM. Selected compounds were serially diluted with DMSO in a non-binding black 384-well plate for a total of 15 ul in each well. 2 ul of the serially diluted compound or DMSO control were then added to new wells containing 98 ul of 1×CAB, for a total volume of 100 ul, 10 ul of which were then transferred to wells of a new plate. 5 ul of the diluted IRE1α was then added to each well. 5 ul of a […] XBP1 RNA probe was then added to each well. Fluorescence was then read over 30 minutes in kinetic mode (485/515 nm).
Two RNA probes were used, XBP1 wildtype (SEQ ID NO: 2) which is able to be spliced by active IRE1α or XBP1 mutant (SEQ ID NO: 3) which is unable to be spliced. Each probe contained a 5′ 6-FAM modification and a 3′ IOWA Black FQ modification.
A second FRET assay was performed to assess ATP-mediated inhibition. In this case, compounds and IRE1α were prepared and combined as discussed above, with the addition of ATP up to 1 mM final concentration. This mixture was incubated at room temperature for 60 minutes and then 5 ul of 400 nM XBP1 wildtype or mutant RNA probe was added. Plates were then read over 30 minutes in kinetic mode (485/515 nm) and rate of fluorescence increase calculated for different compound dilutions to determine IC50 (Table 3).

T1 sequence (O75460 19-977): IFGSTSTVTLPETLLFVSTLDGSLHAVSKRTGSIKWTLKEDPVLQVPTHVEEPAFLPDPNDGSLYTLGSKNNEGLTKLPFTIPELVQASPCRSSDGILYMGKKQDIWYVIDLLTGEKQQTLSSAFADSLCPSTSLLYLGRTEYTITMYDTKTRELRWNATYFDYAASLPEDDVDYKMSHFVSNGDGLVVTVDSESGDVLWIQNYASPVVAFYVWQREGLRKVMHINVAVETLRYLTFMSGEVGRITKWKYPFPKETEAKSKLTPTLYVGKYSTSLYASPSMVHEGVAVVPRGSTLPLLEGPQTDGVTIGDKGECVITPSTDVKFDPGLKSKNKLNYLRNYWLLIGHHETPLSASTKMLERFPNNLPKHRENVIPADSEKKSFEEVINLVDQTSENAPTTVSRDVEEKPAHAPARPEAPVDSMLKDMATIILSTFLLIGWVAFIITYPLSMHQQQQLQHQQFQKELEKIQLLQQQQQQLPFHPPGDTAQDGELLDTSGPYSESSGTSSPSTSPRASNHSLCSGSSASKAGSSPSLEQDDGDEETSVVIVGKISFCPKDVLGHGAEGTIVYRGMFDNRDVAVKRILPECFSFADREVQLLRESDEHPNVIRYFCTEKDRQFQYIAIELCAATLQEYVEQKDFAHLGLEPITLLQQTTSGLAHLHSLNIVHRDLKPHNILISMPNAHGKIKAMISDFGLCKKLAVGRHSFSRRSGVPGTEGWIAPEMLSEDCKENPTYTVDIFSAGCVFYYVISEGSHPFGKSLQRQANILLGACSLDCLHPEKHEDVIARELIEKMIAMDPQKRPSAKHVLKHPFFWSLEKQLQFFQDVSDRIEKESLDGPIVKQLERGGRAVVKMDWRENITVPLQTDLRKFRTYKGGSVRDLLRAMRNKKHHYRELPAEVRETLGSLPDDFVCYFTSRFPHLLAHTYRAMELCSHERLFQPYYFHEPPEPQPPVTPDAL

Row | EC50 [1] | IC50 [2] | Structure (SMILES)
1 | 50 to 100 nM |  | COc1nc(NS(=O)(=O)c2cccc(F)c2Cl)ccc1/C=C/c1cnc(NC2CCC(N(C)C)CC2)nc1 (single isomer, unassigned) [Compound 53, 2-chloro-N-(5-((E)-2-(2-(((1r,4r)-4-(dimethylamino)cyclohexyl)amino)pyrimidin-5-yl)vinyl)-6-methoxypyridin-2-yl)-3-fluorobenzenesulfonamide]
2 |  | ≤ 1 nM | Cc1cc(NS(=O)(=O)c2ccccc2Cl)ccc1CCc1cnc(NC2CCC(N)CC2)nc1 (stereo not shown) [Compound 6, N-(4-(2-(2-(((1r,4r)-4-aminocyclohexyl)amino)pyrimidin-5-yl)ethyl)-3-methylphenyl)-2-chlorobenzenesulfonamide]
3 |  | 1 to 5 nM | N[C@H]1CC[C@H](Nc2ncc(CCc3ccc(NS(=O)(=O)c4ccccc4Cl)nn3)cn2)CC1 [Compound 7, N-(6-(2-(2-(((1r,4r)-4-aminocyclohexyl)amino)pyrimidin-5-yl)ethyl)pyridazin-3-yl)-2-chlorobenzenesulfonamide]
4 |  | 1 to 5 nM | COc1nc(NS(=O)(=O)c2ccccc2Cl)ccc1CCc1ccc(NC2CCC(N)CC2)nc1 (stereo not shown) [Compound 13, N-(5-(2-(6-(((1r,4r)-4-aminocyclohexyl)amino)pyridin-3-yl)ethyl)-6-methoxypyridin-2-yl)-2-chlorobenzenesulfonamide]
5 | 5 to 50 nM |  | CN(C)C1CCC(Nc2ncc(/C=C/c3ccc(NS(=O)(=O)c4ccccc4Cl)nn3)cn2)CC1 (stereo not shown) [Compound 52, 2-chloro-N-(6-((E)-2-(2-(((1r,4r)-4-(dimethylamino)cyclohexyl)amino)pyrimidin-5-yl)vinyl)pyridazin-3-yl)benzenesulfonamide]
6 | ≤ 5 nM |  | COc1nc(NS(=O)(=O)c2ccccc2Cl)ccc1/C=C/c1cnc(NC2CCC(N3CCOCC3)CC2)nc1 (stereo not shown) [Compound 57, 2-chloro-N-(6-methoxy-5-((E)-2-(2-(((1r,4r)-4-morpholinocyclohexyl)amino)pyrimidin-5-yl)vinyl)pyridin-2-yl)benzenesulfonamide]
7 | 50 to 100 nM |  | Cc1nc(NS(=O)(=O)c2cnccc2Cl)ccc1/C=C/c1cnc(NC2CCC(N(C)C)CC2)nc1 (stereo not shown) [Compound 62, 4-chloro-N-(5-((E)-2-(2-(((1r,4r)-4-(dimethylamino)cyclohexyl)amino)pyrimidin-5-yl)vinyl)-6-methylpyridin-2-yl)pyridine-3-sulfonamide]
8 | ≤ 5 nM |  | COc1nc(NS(=O)(=O)c2ccccc2Cl)ccc1/C=C/c1cnc(NC2CCC(N3CCSCC3)CC2)nc1 (stereo not shown) [Compound 64, 2-chloro-N-(6-methoxy-5-((E)-2-(2-(((1r,4r)-4-thiomorpholinocyclohexyl)amino)pyrimidin-5-yl)vinyl)pyridin-2-yl)benzenesulfonamide]
9 | ≤ 5 nM |  | COc1cc(NS(=O)(=O)c2cnccc2Cl)ccc1/C=C/c1cnc(NC2CCC(N(C)C)CC2)nc1 (stereo not shown) [Compound 65, 4-chloro-N-(4-((E)-2-(2-(((1r,4r)-4-(dimethylamino)cyclohexyl)amino)pyrimidin-5-yl)vinyl)-3-methoxyphenyl)pyridine-3-sulfonamide]

The remaining lines, values behind:

Row | Structure (SMILES) | EC50 [1] | IC50 [2]
10 | NC1CCC(Nc2ncc(/C=C/c3ccc(NS(=O)(=O)c4ccccc4Cl)c(F)c3)cn2)CC1 (stereo not shown) [Compound 3, N-(4-((E)-2-(2-(((1r,4r)-4-aminocyclohexyl)amino)pyrimidin-5-yl)vinyl)-2-fluorophenyl)-2-chlorobenzenesulfonamide] | ≤ 5 nM | 
11 | COc1nc(NS(=O)(=O)c2ccccc2Cl)ccc1/C=C/c1cnc(NC2CCC(O)CC2)nc1 (stereo not shown) [Compound 11, 2-chloro-N-(5-((E)-2-(2-(((1r,4r)-4-hydroxycyclohexyl)amino)pyrimidin-5-yl)vinyl)-6-methoxypyridin-2-yl)benzenesulfonamide] |  | 1 to 5 nM
12 | COc1nc(NS(=O)(=O)c2ccccc2Cl)ccc1CCc1cnc(NC2CCC(O)CC2)nc1 (stereo not shown) [Compound 12, 2-chloro-N-(5-(2-(2-(((1r,4r)-4-hydroxycyclohexyl)amino)pyrimidin-5-yl)ethyl)-6-methoxypyridin-2-yl)benzenesulfonamide] |  | 5 to 50 nM
13 | COc1nc(NS(=O)(=O)c2ccccc2Cl)c(F)cc1/C=C/c1cnc(NC2CCC(N)CC2)nc1 (stereo not shown) [Compound 54, N-(5-((E)-2-(2-(((1r,4r)-4-aminocyclohexyl)amino)pyrimidin-5-yl)vinyl)-3-fluoro-6-methoxypyridin-2-yl)-2-chlorobenzenesulfonamide] | 50 to 100 nM | 
14 | COc1nc(NS(=O)(=O)c2cnccc2Cl)ccc1/C=C/c1cnc(NC2CCC(N(C)C)CC2)nc1 (stereo not shown) [Compound 56, 4-chloro-N-(5-((E)-2-(2-(((1r,4r)-4-(dimethylamino)cyclohexyl)amino)pyrimidin-5-yl)vinyl)-6-methoxypyridin-2-yl)pyridine-3-sulfonamide] | 50 to 100 nM | 
15 | Cc1nc(NS(=O)(=O)c2ccccc2Cl)c(F)cc1/C=C/c1cnc(NC2CCC(N)CC2)nc1 (stereo not shown) [Compound 58, N-(5-((E)-2-(2-(((1r,4r)-4-aminocyclohexyl)amino)pyrimidin-5-yl)vinyl)-3-fluoro-6-methylpyridin-2-yl)-2-chlorobenzenesulfonamide] | 50 to 100 nM | 
16 | CNC1CCC(Nc2ncc(/C=C/c3cc(F)c(NS(=O)(=O)c4ccccc4Cl)nc3OC)cn2)CC1 (stereo not shown) [Compound 59, 2-chloro-N-(3-fluoro-6-methoxy-5-((E)-2-(2-(((1r,4r)-4-(methylamino)cyclohexyl)amino)pyrimidin-5-yl)vinyl)pyridin-2-yl)benzenesulfonamide] | 50 to 100 nM | 
17 | COc1nc(NS(=O)(=O)c2ccccc2Cl)ccc1/C=C/c1cnc(NC2CCC(N3CCCCC3)CC2)nc1 (stereo not shown) [Compound 60, 2-chloro-N-(6-methoxy-5-((E)-2-(2-(((1r,4r)-4-(piperidin-1-yl)cyclohexyl)amino)pyrimidin-5-yl)vinyl)pyridin-2-yl)benzenesulfonamide] | ≤ 5 nM | 
18 | CN(C)C1CCC(Nc2ncc(/C=C/c3ccc(NS(=O)(=O)c4ccc(F)cc4Cl)nc3)cn2)CC1 (stereo not shown) [Compound 61, 2-chloro-N-(5-((E)-2-(2-(((1r,4r)-4-(dimethylamino)cyclohexyl)amino)pyrimidin-5-yl)vinyl)pyridin-2-yl)-4-fluorobenzenesulfonamide] | ≤ 5 nM | 
19 | CN(C)C1CCC(Nc2ncc(/C=C/c3ccc(NS(=O)(=O)c4cccc(Cl)c4Cl)nc3)cn2)CC1 (stereo not shown) [Compound 63, 2,3-dichloro-N-(5-((E)-2-(2-(((1r,4r)-4-(dimethylamino)cyclohexyl)amino)pyrimidin-5-yl)vinyl)pyridin-2-yl)benzenesulfonamide] | ≤ 5 nM | 
20 | COc1c(/C=C/c2cnc(NC3CCC(N(C)C)CC3)nc2)ccc(NS(=O)(=O)c2ccccc2Cl)c1F (stereo not shown) [Compound 66, 2-chloro-N-(4-((E)-2-(2-(((1r,4r)-4-(dimethylamino)cyclohexyl)amino)pyrimidin-5-yl)vinyl)-2-fluoro-3-methoxyphenyl)benzenesulfonamide] | ≤ 5 nM | 
21 | COc1cc(NS(=O)(=O)c2ccccc2Cl)c(F)cc1/C=C/c1cnc(NC2CCC(N(C)C)CC2)nc1 (stereo not shown) [Compound 67, 2-chloro-N-(4-((E)-2-(2-(((1r,4r)-4-(dimethylamino)cyclohexyl)amino)pyrimidin-5-yl)vinyl)-2-fluoro-5-methoxyphenyl)benzenesulfonamide] | ≤ 5 nM | 
22 | CN(C)C1CCC(Nc2ncc(/C=C/c3ccc(NS(=O)(=O)c4cccc(F)c4Cl)nc3)cn2)CC1 (stereo not shown) [Compound 68, 2-chloro-N-(5-((E)-2-(2-(((1r,4r)-4-(dimethylamino)cyclohexyl)amino)pyrimidin-5-yl)vinyl)pyridin-2-yl)-3-fluorobenzenesulfonamide] | ≤ 5 nM | 
